A short description of data set [1]: Conversion of Compound A to nicorandil in rat plasma (FIG. 2). The class given is in vitro ADME. To be noted: various time points.
The nature of data set [2]: Pharmacokinetics (PK) in dog, oral dosing. The class given is in vivo, Beagle dog. The method, then: Pharmacokinetics (PK) Protocol: Dog
0.5 ml blood was collected at each time point from the femoral vein via direct stick at defined time points. in tubes containing anticoagulant. […] Supernatant was kept for analysis. […] Quantitative analysis was done by liquid chromatography tandem mass spectrometer (API3000 LC-MS/MS).

Data set [3] in a line: Pharmacokinetics (PK) in rat, oral dosing, plasma levels of parent drug nicorandil. The class given is in vivo, SD rats. The method, then:
Pharmacokinetics (PK) Protocol: Rat
The dosing vehicle used in this study was PEG400. 1, 3, 10 mg/kg oral dosing was done in overnight fasted SD rats and the parent drug generated was monitored. Also presence of modified drug was checked. After oral (PO) dosing blood was collected by serial bleeding at 8 different time points in heparinised tubes. […] Supernatant was kept for analysis. […] Quantitative analysis was done by liquid chromatography tandem mass spectrometer (API3000 LC-MS/MS).

With `C[C@H](NC(=O)OC[n+]1cccc(C(=O)NCCO[N+](=O)[O-])c1)C1CCCCC1` [Compound 8, (S)-1-(((1-cyclohexylethylcarbamoyl)oxy)methyl)-3-((2-(nitroxy)ethyl)carbamoyl)pyridine-1-ium iodide], the conversion to nicorandil result in data set [1] is recorded as “Complete conversion to nicorandil”. Further, the “plasma exposure compared (AUC and Cmax)” value in data set [2] (3 mg/kg oral) is recorded as “significantly higher”. In addition, in data set [2] (oral), the “modified drug detected in plasma” value is on record as “no modified drug was detected” and the “plasma exposure (in words)” value is given as “excellent plasma exposure”. Besides, in data set [3] (rat, 1, 3, 10 mg/kg oral), the “dose linearity of plasma exposure” value was “displayed dose linearity”. In data set [3] (rat, oral), the “modified drug detected in plasma” value was “no modified drug was detected” and the “plasma exposure (in words)” value is listed as “excellent plasma exposure”.

The values above are taken from patent US12377082B2, “Nicorandil derivatives” (priority 2019, dated 2025).
